Results reported in patent US9221834B2 (Merck Sharp & Dohme Corp., priority 2010, dated 2015).

Tests used:
[1] = biological target: T1, endogenous CETP from serum (Homo sapiens, UniProt P11597); assay: RTA assay using endogenous CETP from serum (95% RTA); assay type: biochemical; settings: RTA assay in 95% human serum, labeled with an asterisk
T1 construct: For the transfer assay using endogenous CETP from serum (95% RTA); from tissue; host or cells: human serum
T1 sequence (P11597 18-493): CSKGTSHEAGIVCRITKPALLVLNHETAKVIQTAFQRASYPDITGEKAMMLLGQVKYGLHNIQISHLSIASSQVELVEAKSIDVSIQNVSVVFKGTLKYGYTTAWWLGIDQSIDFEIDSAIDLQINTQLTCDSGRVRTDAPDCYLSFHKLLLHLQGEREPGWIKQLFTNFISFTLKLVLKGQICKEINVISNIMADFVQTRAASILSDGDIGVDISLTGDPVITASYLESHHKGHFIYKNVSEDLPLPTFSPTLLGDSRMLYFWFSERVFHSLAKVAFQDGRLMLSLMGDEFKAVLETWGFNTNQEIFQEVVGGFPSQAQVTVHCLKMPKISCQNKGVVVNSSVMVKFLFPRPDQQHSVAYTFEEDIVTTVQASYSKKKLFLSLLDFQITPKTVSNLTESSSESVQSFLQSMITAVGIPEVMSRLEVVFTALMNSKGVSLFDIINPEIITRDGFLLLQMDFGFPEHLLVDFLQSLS
Experimental: In Vitro Radioactive Assays of CETP-Catalyzed CE and TG Transfer (RTA Assay)
Reagents and sources are: [3H] cholesteryl oleate (GE #TRK.886), [3H] Triolein (Perkin-Elmer NET-431), Butylated hydroxyl toluene (Aldrich, #D4740-4), DOPC (Sigma, #P6354), Sodium Bromide (Fisher scientific #5255-500), PEG 8000 (Fisher, #BP233-1), and human HDL (Intracel Corp #RP-036).
An in vitro assay for determining IC50's to identify compounds that inhibit CETP transfer activity is performed based on a modification of a published method (Morton and Zilversmit, (1981) A plasma inhibitor of triglyceride and cholesteryl ester transfer activities, J. Biol. Chem. 256(23), 11992-11995). The ability of inhibitors to alter CETP activity is performed using two different assays: one using recombinant CETP and one using an edogenous plasma source of CETP. Both assays measure the transfer of [3H] cholesteryl oleate or [3H]triolein from exogenous LDL to HDL.
Radiolabeled donor particles are generated by first combining 100 μl of 200 μM butylated hydroxyl toluene in CHCl3, 216 μL of 21.57 mM DOPC in EtOH, and either 500 μCi [3H]-triolein (Perkin Elmer #NET-431) or 500 μCi [3H]-cholesteryl oleate (GE #TRK886) in a glass tube. Reagents are mixed, dried under nitrogen, and then resuspended in 2 mL of 50 mM Tris, 27 μM EDTA at pH 7.4. After a brief vortex, the solution is sonicated until clear and mixed with 20 mL of fresh human serum. The mixture is incubated overnight at 37° C. The [3H] labeled LDL substrate is separated at 1.063 g/ml density by sequential ultracentrifugal flotation in NaBr according to the method by (Havel, Eder et al. 1955; Chapman, Goldstein et al. 1981). Once isolated the particles are dialyzed 3× in CETP buffer (50 mM Tris, pH 7.4, 100 mM NaCl, 1 mM EDTA). Human HDL is purchased from Intracel and used as the acceptor particles.
Transfer assays are performed in a 96-well v-bottom polypropylene plate. […] After mixing, plates are counted by liquid scintillation. […]

CETP = biological target: T2, CETP (Homo sapiens, UniProt P11597); assay: Scintillation Proximity Assay (SPA) for CETP Activity; assay type: biochemical
T2 construct: made in house
T2 sequence (P11597 18-493): T1 sequence (P11597 18-493)
Experimental: Protocol: Scintillation Proximity Assay (SPA) for CETP Activity
First low density lipoprotein (LDL) (Meridian) was biotinylated by incubating LDL with biotin for 1 hour on ice, after which it was dialyzed to remove free biotin. Then compounds at varying concentrations were incubated with 15 nM CETP (reagent production group, In Vitro Pharmacology, MRL Rahway) and 50 ug/ml of the biotinylated LDL in 50 mM HEPES, 150 mM NaCl, pH 7.4, for 1 hour at 37° C. The reaction was started by adding ^3H-cholesterol ester high density lipoprotein (HDL) (American Radiochemicals Corp) at a concentration of ˜0.6 nM. The reaction proceeded for 2 hours at 37° C., after which time it was quenched by the addition of 12% acetic acid. PVT streptavadin-coated scintillation proximity beads, which had been brought to room temperature, were then added at a concentration of 4 mg/ml. The assay was then mixed and counted after one half hour in a Microbeta plate reader.

[2] = torcetrapib and atorvastatin concomitantly compared with atorvastatin alone; cited from earlier work

COC(=O)c1ccc(-c2cc(-c3cnc(N4CCC4)nc3CN3C(=O)O[C@H](c4cc(C(F)(F)F)cc(C(F)(F)F)c4)[C@@H]3C)c(F)cc2F)c(C)c1 [Example 142]
IC50 [1]: 145 nM

Cc1cc(C(=O)O)ccc1-c1cc(-c2cnc(N3CCC3)nc2CN2C(=O)O[C@H](c3cc(C(F)(F)F)cc(C(F)(F)F)c3)[C@@H]2C)c(F)cc1F [Example 170]
IC50 [1]: 110 nM

COc1ccc(CCC(=O)O)cc1-c1cnc(N2CCC2)nc1CN1C(=O)O[C@H](c2cccc(F)c2)[C@@H]1C [Example 277]
IC50 [1]: 35 nM

COc1cc(F)c(C(C)C)cc1-c1ccc(-n2cccn2)nc1CN1C(=O)O[C@H](c2cc(C(F)(F)F)cc(C(F)(F)F)c2)[C@@H]1C [Example 299, (4S,5R)-5-[3,5-bis(trifluoromethyl)phenyl]-3-({3-[4-fluoro-2-methoxy-5-(propan-2-yl)phenyl]-6-(1H-pyrazol-1-yl)pyridin-2-yl}methyl)-4-methyl-1,3-oxazolidin-2-one]
IC50 (CETP): 55.8 nM

CCOC(=O)N1c2ccc(C(F)(F)F)cc2[C@@H](N(Cc2cc(C(F)(F)F)cc(C(F)(F)F)c2)C(=O)OC)C[C@H]1CC [torcetrapib, Torcetrapib]
incidence of mortality [2]: higher incidence of mortality
